Series [1] deals with MDA-MB-231. The series can be described thus: Activation of CD95 cell death pathway in Fas-resistant human MDA-MB-231 cells pretreated for 6 hrs followed by treated with anti-Fas antibody assessed as increase in CD95 expression measured after 24 hrs by FACS analysis. It is filed as functional, cell-based. (Flow cytometry measures light scatter and fluorescence of single cells or particles in a stream.)

Series [2] relates to PC-3. Kind of series: Cytotoxicity against human PC-3 cells assessed as cell death in presence of docetaxel measured by MTT assay. The series is classed as functional, cell-based. For orientation: Tetrazolium dyes change colour on reduction, which living cells bring about.
For series [3], the system named is PC-3. The series can be described thus: Cytotoxicity against human PC-3 cells assessed as cell death in presence of doxorubicin measured by MTT assay. It is filed as functional, cell-based.
Series [4] has as its system LNCaP. Kind of series: Cytotoxicity against human LNCaP cells assessed as cell death measured by MTT assay. The series is classed as functional, cell-based.
Series [5] has as its system PC-3. The series can be described thus: Cytotoxicity against human PC-3 cells assessed as dead cells measured after 24 to 72 hrs by FACS based Calcein A/EtBr-dimer LIVE/DEAD cell staining kit. The series is classed as functional.
Series [6] concerns MDA-MB-231. The series can be described thus: In vivo antitumor activity against human MDA-MB-231 cells expressing FLuc-EGFP fusion protein xenografted in NOD-SCID mouse assessed as tumor regression at 200 mg/kg, ip measured upto day 13 by optical imaging based assay relative to control. It is filed as functional, organism-based. Particulars: time 13.0 day. (A xenograft is tissue or cells of one species grown in another, often human tumour cells in immunodeficient mice.)

Series [7] in a line: Cytotoxicity against human ABC-TC3995 cells assessed as cell death in presence of docetaxel measured by MTT assay. It is filed as functional, cell-based.
Series [8] has as its system LNCaP. Kind of series: Cytotoxicity against human LnCAP cells assessed as cell death in presence of doxorubicin measured by MTT assay. The series is classed as functional, cell-based.
Series [9] concerns PC-3. The series can be described thus: Cytotoxicity against human PC-3 cells assessed as dead cells at 30 uM measured after 24 to 72 hrs by FACS based Calcein A/EtBr-dimer LIVE/DEAD cell staining kit. The series is classed as functional. Particulars: time 24-72 hrs.
The nature of series [10]: Toxicity in NOD-SCID mouse xenografted in human MDA-MB-231 cells assessed as kidney histology at 200 mg/kg, ip measured upto day 13 by H and E staining based assay. The series is classed as organism-based. The following applies: in vivo, 312 h, time 13 day.
Series [11] is described as follows: Cytotoxicity against human iPSC cells assessed as cell death in presence of docetaxel measured by MTT assay. It is filed as functional, cell-based.
The nature of series [12]: Toxicity in NOD-SCID mouse xenografted in human MDA-MB-231 cells assessed as liver histology at 200 mg/kg, ip measured upto day 13 by H and E staining based assay. The series is classed as organism-based. The following applies: in vivo.
For series [13], the system named is MDA-MB-231. The series can be described thus: In vivo antitumor activity against human MDA-MB-231 cells expressing FLuc-EGFP fusion protein xenografted in NOD-SCID mouse assessed as tumor regression at 100 mg/kg, ip measured upto day 13 by optical imaging based assay relative to control. The series is classed as functional, organism-based. Particulars: time 13.0 day.

For series [14], the system named is MDA-MB-231. The series can be described thus: In vivo antitumor activity against human MDA-MB-231 cells expressing FLuc-EGFP fusion protein xenografted in NOD-SCID mouse assessed as tumor regression at 50 mg/kg, ip measured upto day 13 by optical imaging based assay relative to control. The series is classed as functional, organism-based. The following applies: time 13.0 day.

Series [15] deals with MDA-MB-231. The series can be described thus: Cytotoxicity against human MDA-MB-231 cells assessed as cell death in presence of doxorubicin measured by MTT assay. It is filed as functional, cell-based.
The test system of series [16] is PC-3. Kind of series: Cytotoxicity against human PC-3 cells assessed as cell death measured by MTT assay. The series is classed as functional, cell-based.
Series [17] deals with MDA-MB-231. The series can be described thus: Synergistic cytotoxicity against Fas-resistant human MDA-MB-231 cells assessed as cell death at 10 uM in presence of 1 to 3 ug/ml doxorubicin measured after 24 to 72 hrs by fluorescent microscopy. The series is classed as functional, cell-based. The following applies: time 24-72 hrs.
A short description of series [18]: Cytotoxicity against human iPSC cells assessed as cell death in presence of doxorubicin measured by MTT assay. The series is classed as functional, cell-based.
Series [19] can be described thus: Cytotoxicity against human ABC-TC3995 cells assessed as cell death measured by MTT assay. It is filed as functional, cell-based.
A short description of series [20]: Cytotoxicity against human ABC-TC3995 cells assessed as cell death in presence of doxorubicin measured by MTT assay. It is filed as functional, cell-based.
Series [21] deals with MDA-MB-231. The series can be described thus: Cytotoxicity against human MDA-MB-231 cells assessed as cell death measured by MTT assay. The series is classed as functional, cell-based.
Series [22] is described as follows: Toxicity in NOD-SCID mouse xenografted in human MDA-MB-231 cells assessed as heart histology at 200 mg/kg, ip measured upto day 13 by H and E staining based assay. The series is classed as organism-based. Particulars: in vivo.
Series [23] concerns DU-145. Kind of series: Cytotoxicity against human DU-145 cells assessed as cell death in presence of doxorubicin measured by MTT assay. It is filed as functional, cell-based.
Series [24] in a line: Cytotoxicity against human iPSC cells assessed as cell death measured by MTT assay. It is filed as functional, cell-based.
Series [25] relates to DU-145. Kind of series: Cytotoxicity against human DU-145 cells assessed as cell death measured by MTT assay. It is filed as functional, cell-based.
Series [26] relates to LNCaP. The series can be described thus: Cytotoxicity against human LNCaP cells assessed as cell death in presence of docetaxel measured by MTT assay. It is filed as functional, cell-based.
Series [27] concerns MDA-MB-231. The series can be described thus: Synergistic cytotoxicity against Fas-resistant human MDA-MB-231 cells assessed as cell death at 10 uM in presence of 3 ug/ml doxorubicin measured after 24 to 72 hrs by fluorescent microscopy. The series is classed as functional. Particulars: time 24-72 hrs.
In series [28] the test system is MDA-MB-231. The series can be described thus: Cytotoxicity against human MDA-MB-231 cells assessed as cell death in presence of docetaxel measured by MTT assay. The series is classed as functional, cell-based.
Series [29] has as its system PC-3. The series can be described thus: Cytotoxicity against human PC-3 cells assessed as dead cells at 60 uM measured after 24 to 72 hrs by FACS based Calcein A/EtBr-dimer LIVE/DEAD cell staining kit. The series is classed as functional. The following applies: time 24-72 hrs.
Series [30] has as its system MDA-MB-231. The series can be described thus: In vivo antitumor activity against human MDA-MB-231 cells expressing FLuc-EGFP fusion protein xenografted in NOD-SCID mouse assessed as loss of cellularity of tumor at 200 mg/kg, ip measured upto day 13 by H and E staining based assay. The series is classed as functional, organism-based.
In series [31] the test system is DU-145. The series can be described thus: Cytotoxicity against human DU-145 cells assessed as cell death in presence of docetaxel measured by MTT assay. The series is classed as functional, cell-based.

pIC50: −log10 of the molar value. Calls of active or inactive are those of the source. No cut-off for these calls is given here. Positions of bridges follow the written chain, without caps; N, C: chain ends. Residues, ends and D or L forms follow the SMILES beside them. Some results are limits rather than exact numbers.

As to `CC[C@H](C)[C@H](NC(=O)[C@H](CCCCN)NC(=O)[C@@H](NC(=O)[C@H](Cc1ccccc1)NC(=O)[C@@H](NC(=O)[C@@H]1CCCN1C(=O)[C@H](CS)NC(=O)[C@H](C)NC(=O)[C@H](CO)NC(=O)[C@H](Cc1ccc(O)cc1)NC(=O)[C@H](CC(C)C)NC(=O)[C@H](CS)NC(=O)[C@H](CCC(N)=O)NC(=O)CNC(=O)CNC(=O)[C@H](CO)NC(=O)[C@H](CO)NC(=O)[C@@H](NC(=O)[C@H](CS)NC(=O)[C@H](CC(N)=O)NC(=O)[C@H](Cc1ccc(O)cc1)NC(=O)[C@H](Cc1c[nH]cn1)NC(=O)[C@@H](N)CC(=O)O)C(C)C)[C@@H](C)CC)[C@@H](C)O)C(=O)N[C@@H](CCC(N)=O)C(=O)NCC(=O)N[C@H](C(=O)N[C@@H](CS)C(=O)N[C@@H](Cc1ccc(O)cc1)C(=O)N[C@@H](CCCNC(=N)N)C(=O)NCC(=O)N[C@@H](CCCCN)C(=O)N[C@@H](C)C(=O)N[C@@H](CCCCN)C(=O)N[C@@H](CS)C(=O)N[C@@H](CS)C(=O)N[C@@H](CCCCN)C(=O)O)[C@@H](C)O` (H-DHYNCVSSGGQCLYSACPIFTKIQGTCYRGKAKCCK-OH), in series [1], the result was inactive.
For orientation: pIC50 means the negative decadic logarithm of the IC50, by convention in mol/L. Take `CC[C@H](C)[C@@H]1NC(=O)[C@H](CCCCN)NC(=O)[C@H]([C@@H](C)O)NC(=O)[C@H](Cc2ccccc2)NC(=O)[C@H]([C@@H](C)CC)NC(=O)[C@@H]2CCCN2C(=O)[C@@H]2CSSC[C@@H]3NC(=O)[C@H](CCCCN)NC(=O)[C@H](C)NC(=O)[C@H](CCCCN)NC(=O)CNC(=O)[C@H](CCCNC(=N)N)NC(=O)[C@H](Cc4ccc(O)cc4)NC(=O)[C@H](CSSC[C@H](NC(=O)[C@H](CCC(N)=O)NC(=O)CNC(=O)CNC(=O)[C@H](CO)NC(=O)[C@H](CO)NC(=O)[C@H](C(C)C)NC(=O)[C@@H](NC(=O)[C@H](CC(N)=O)NC(=O)[C@H](Cc4ccc(O)cc4)NC(=O)[C@H](Cc4c[nH]cn4)NC(=O)[C@@H](N)CC(=O)O)CSSC[C@@H](C(=O)N[C@@H](CCCCN)C(=O)O)NC3=O)C(=O)N[C@@H](CC(C)C)C(=O)N[C@@H](Cc3ccc(O)cc3)C(=O)N[C@@H](CO)C(=O)N[C@@H](C)C(=O)N2)NC(=O)[C@H]([C@@H](C)O)NC(=O)CNC(=O)[C@H](CCC(N)=O)NC1=O` (H-DHYNCVSSGGQCLYSACPIFTKIQGTCYRGKAKCCK-OH; disulfide 5-35, 12-27, 17-34): the pIC50 in series [2] was 5.92; in series [3], 6.02; in series [4], 4.91; in series [5], 4.70; in series [7] it was 4.10; in [8], 6.96. Further, the pIC50 in series [11] was 4.07; in series [15] it was 5.42; in series [16], 4.58; in series [18], 4.02; in series [19] it was < 3.60; in series [20] it was 4.05. Besides, the negative-log IC50 (pIC50) in series [21] is 4.61; in series [23] it was 6.60; in series [24] it was < 3.60; in [25], 5.24; in series [26], 6.82; in series [28] it was 5.19. The negative-log IC50 (pIC50) in series [31] is 6.35. The outcome in series [6], in series [13], in series [17] and in series [30] was Active. Moreover, the Activity in series [9] was 63.4%; in series [10] it was “Non-Toxic”; in series [12], “Non-Toxic”; in series [22], “Non-Toxic”; in series [27], >90%; in series [1], “Dose-Dependent Effect”. In addition, the Activity in [29] is on record as 97.2%. The result in [14] was inactive.
In the case of `CC(=O)O[C@@]12CO[C@@H]1C[C@H](O)[C@@]1(C)C(=O)[C@H](O)C3=C(C)[C@@H](OC(=O)[C@H](O)[C@@H](NC(=O)OC(C)(C)C)c4ccccc4)C[C@@](O)([C@@H](OC(=O)c4ccccc4)[C@H]21)C3(C)C` [DOCETAXEL ANHYDROUS], the negative-log IC50 (pIC50) in series [4] was 4.91; in series [16], 4.90; in series [19], 4.78; in series [21], 4.41; in series [24] it was 4.73; in [25] it was 5.27.
`COc1cccc2c1C(=O)c1c(O)c3c(c(O)c1C2=O)C[C@@](O)(C(=O)CO)C[C@@H]3O[C@H]1C[C@H](N)[C@H](O)[C@H](C)O1` [DOXORUBICIN]: the negative logarithm of the IC50 (pIC50) in series [4] is 5.97; in series [16] it was 4.76; in series [19], 4.90; in series [21] it was 4.33; in series [24], 5.17; in [25], 4.91.
